These results are taken from PubChem BioAssay AID602254 (Broad Institute, 2012).

Calls of active or inactive are those of the source.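 How the source made its calls: active means fitted half-maximal concentration no higher than twice the top valid tested dose, with signal falling; inconclusive means flat curve with 30 to 70% inhibition, or poor fit; inactive means the rest.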

The target of the assay is Golgi-associated PDZ and coiled-coil motif-containing protein (Homo sapiens) (UniProt Q9HD26). As to the kind of experiment: CAL PDZ domain peptide-binding inhibitors, dose response, biochemical, fluorescence polarization, untagged CAL PDZ, cherry-pick, set 2 (AID 602254).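 Further: potency of inhibitors that displace the labelled peptide.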 As to conditions: Purified CAL PDZ, TMR peptide fluorescence polarization. Background: In fluorescence polarisation assays a small probe gives low polarisation when free and higher when bound to something large.
By AC50 is commonly meant the concentration giving half of the maximal activity seen. With `Cc1cc(NC(=O)c2c(Br)c(C)nn2C)no1`, the AC50 is > 120 µM (inactive). Then `CC(=O)N1CCc2cc(S(=O)(=O)NC(C(=O)NCc3ccccc3)C(C)C)ccc21` (centres undefined), with > 120 µM (inactive). The figure for `Cc1ccc(C)c(NC(=O)CN(C)C(=O)c2ccc3c(=O)n4c(nc3c2)CCC4)c1` is > 120 µM (inactive). The figure for `CCN(CC)CCn1c(=S)[nH]c2ccc(Br)cc2c1=O` is > 120 µM (inactive); for `Cc1cccc(OCC(=O)OCC(=O)Nc2ccc(Cl)cn2)c1` it is > 120 µM (inactive). For `CN(C)S(=O)(=O)c1cccc(COc2ncnc3c(Cl)cc(Cl)cc23)c1`, the AC50 was > 120 µM (inactive). Then `Cc1c(NS(=O)(=O)c2ccc(S(=O)(=O)c3ccccc3)s2)c(=O)n(-c2ccccc2)n1C`, with > 120 µM (inactive); and `OCCC1CN(Cc2ccc3nsnc3c2)CCN1C1CCCCC1` (centres undefined), with > 120 µM (inactive); and `CCN(CC)c1ccc(N2C(=O)CSC2=S)cc1`, with > 120 µM (inactive). The figure for `Cc1cc(NC(=O)c2ccc(C#N)cc2)n(-c2ccccn2)n1` is > 120 µM (inactive); for `Cc1ccc2nc(COC(=O)c3ccc(Cl)nc3)cc(=O)n2c1` it is > 120 µM (inactive). Then `Cc1cc(F)ccc1NC(=O)c1cc(S(=O)(=O)N2CCCC2)cn1C`, with > 120 µM (inactive); and `CN(Cc1ccc(Cl)s1)C(=O)CNC(=O)CNC(=O)c1ccc(Cl)cc1Cl`, with > 120 µM (inactive); and `COc1ccc(CC2CCOC2=O)cc1` (centres undefined), with > 120 µM (inactive).
